In patent US8710233B2 (Gruenenthal GmbH, priority 2005, dated 2014):

Columns and labels:
[1] = biological target: T1, vanilloid receptor (VR1) (Homo sapiens, UniProt Q8NER1); assay: FLIPR Ca2+ influx assay on CHO K1 cells transfected with the VR1 gene (pharmacological method II); format: cell-based; details: table 4; capsaicin; read-out: Ki (human) Cap.
T1 construct: expressed in transfected cells; host or cells: CHO K1 cells (ECACC), stably transfected

[2] = biological target: VR1/TRPV1 receptor (Homo sapiens, UniProt Q8NER1); assay: IC50 (human) after pH stimulus; format: cell-based; details: for IC50: table 4; for inhibition at 5 µM / inhibition at 10 µM / inhibition at 0.1 µM / inhibition at 1 µM: read-out: inhibition in percent, IC50 (human) after pH stimulus
Sequence of VR1/TRPV1 receptor (Q8NER1 whole entry): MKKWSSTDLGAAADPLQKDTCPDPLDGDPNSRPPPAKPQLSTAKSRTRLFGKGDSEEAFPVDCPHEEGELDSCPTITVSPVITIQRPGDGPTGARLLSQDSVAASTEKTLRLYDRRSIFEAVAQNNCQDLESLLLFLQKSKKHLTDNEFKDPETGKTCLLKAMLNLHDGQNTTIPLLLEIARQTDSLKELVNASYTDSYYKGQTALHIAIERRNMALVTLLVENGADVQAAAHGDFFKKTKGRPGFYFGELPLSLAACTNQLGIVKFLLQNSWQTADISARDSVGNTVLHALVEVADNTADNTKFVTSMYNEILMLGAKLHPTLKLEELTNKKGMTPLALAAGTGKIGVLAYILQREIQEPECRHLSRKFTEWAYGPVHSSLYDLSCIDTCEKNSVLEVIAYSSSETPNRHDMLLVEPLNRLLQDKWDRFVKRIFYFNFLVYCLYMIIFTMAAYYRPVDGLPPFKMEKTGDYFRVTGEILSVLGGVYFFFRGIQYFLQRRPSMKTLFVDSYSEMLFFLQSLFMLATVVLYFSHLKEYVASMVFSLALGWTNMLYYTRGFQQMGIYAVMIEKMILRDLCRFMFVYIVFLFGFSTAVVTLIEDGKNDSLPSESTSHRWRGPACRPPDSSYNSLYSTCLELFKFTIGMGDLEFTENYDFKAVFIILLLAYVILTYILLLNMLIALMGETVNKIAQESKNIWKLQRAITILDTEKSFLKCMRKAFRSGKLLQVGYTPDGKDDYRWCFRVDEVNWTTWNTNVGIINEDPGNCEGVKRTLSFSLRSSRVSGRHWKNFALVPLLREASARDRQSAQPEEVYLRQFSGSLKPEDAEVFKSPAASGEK

T1 sequence (Q8NER1 whole entry): as above

C/C=C\COc1nc(C(F)(F)F)ccc1CNC(=O)C(C)c1ccc(NS(C)(=O)=O)c(F)c1 (centres unmarked) [Example 298, N-(2-but-2-enyloxy-6-trifluoromethyl-pyridin-3-ylmethyl)-2-(3-fluoro-4-methylsulfonamido-phenyl)-propionamide]
Ki [1]: 0.0016 µM
IC50 [2]: 0.183 µM

CC(C(=O)NCc1ccc(C(F)(F)F)nc1N1CC=C(c2ccccc2)CC1)c1ccc(NS(C)(=O)=O)c(F)c1 (centres unmarked) [Example 317, 2-(3-fluoro-4-methylsulfonamido-phenyl)-N-(4-phenyl-6′-trifluoromethyl-3,6-dihydro-2H-[1,2′]bipyridinyl-3′-ylmethyl)-propionamide]
Ki [1]: 0.0017 µM
IC50 [2]: 0.043 µM

CCCCCOc1nc(C(F)(F)F)cc(C)c1CNC(=O)C(C)c1ccc(NS(C)(=O)=O)c(F)c1 (centres unmarked) [Example 302, 2-(3-fluoro-4-methylsulfonamido-phenyl)-N-(4-methyl-2-pentyloxy-6-trifluoromethyl-pyridin-3-ylmethyl)-propionamide]
Ki [1]: 0.1 µM
IC50 [2]: 1.18 µM

CC(C)COc1nc(C(F)(F)F)ccc1CNC(=O)[C@H](C)c1ccc(NS(C)(=O)=O)c(F)c1 [Example 97, (R)-2-(3-fluoro-4-methylsulfonamido-phenyl)-N-(2-isobutoxy-6-trifluoromethyl-pyridin-3-ylmethyl)-propionamide]
Ki [1]: 0.0445 µM
IC50 [2]: 2.15 µM

CC(C(=O)NCc1ccc(C(F)(F)F)nc1C#Cc1ccccc1)c1ccc(NS(C)(=O)=O)c(F)c1 (centres unmarked) [Example 354, 2-(3-fluoro-4-methylsulfonamido-phenyl)-N-(2-phenylethynyl-6-trifluoromethyl-pyridin-3-ylmethyl)-propionamide]
Ki [1]: 0.0008 µM
IC50 [2]: 0.085 µM

CC(C(=O)NCc1ccc(C(F)(F)F)cc1N1CCN(C2CCCCC2)CC1)c1ccc(NS(C)(=O)=O)c(F)c1 (centres unmarked) [Example 319, N-[2-(4-cyclohexyl-piperazin-1-yl)-4-trifluoromethyl-benzyl]-2-(3-fluoro-4-methylsulfonamido-phenyl)-propionamide]
Ki [1]: 0.0138 µM
inhibition at 5 µM [2]: 38%
inhibition at 10 µM [2]: 54%

CCCCCc1nc(C(F)(F)F)ccc1CNC(=O)[C@H](C)c1ccc(NS(C)(=O)=O)c(F)c1 [Example 145, (R)-2-(3-fluoro-4-methylsulfonamido-phenyl)-N-(2-pentyl-6-trifluoromethyl-pyridin-3-ylmethyl)-propionamide]
Ki [1]: 0.078 µM
inhibition at 10 µM [2]: 49%

CC(C(=O)NCc1ccc(C(C)(C)C)nc1N1CCCCCC1)c1ccc(NS(C)(=O)=O)c(F)c1 (centres unmarked) [Example 296, N-(2-azepan-1-yl-6-tert-butyl-pyridin-3-ylmethyl)-2-(3-fluoro-4-methansulfonylamino-phenyl)-propionamide]
Ki [1]: 0.0009 µM
IC50 [2]: 0.154 µM

CC(C(=O)NCc1ccc(C(F)(F)F)nc1-c1ccc2cc[nH]c2c1)c1ccc(NS(C)(=O)=O)c(F)c1 (centres unmarked) [Example 275, 2-(3-fluoro-4-methylsulfonamido-phenyl)-N-[2-(1H-indol-6-yl)-6-trifluoromethyl-pyridin-3-ylmethyl]-propionamide]
Ki [1]: 0.0203 µM
IC50 [2]: 1.19 µM

COc1cc(COc2nc(C(F)(F)F)ccc2CNC(=O)C(C)c2ccc(NS(C)(=O)=O)c(F)c2)cc(OC)c1 (centres unmarked) [Example 363, N-[2-(3,5-dimethoxy-benzyloxy)-6-trifluoromethyl-pyridin-3-ylmethyl]-2-(3-fluoro-4-methylsulfonamido-phenyl)-propionamide]
Ki [1]: 0.0007 µM
IC50 [2]: 0.076 µM

CC(C(=O)NCc1ccc(C(F)(F)F)nc1OC1CCC(C)(C)CC1)c1ccc(NS(C)(=O)=O)c(F)c1 (centres unmarked) [Example 338, N-[2-(4,4-dimethyl-cyclohexyloxy)-6-trifluoromethyl-pyridin-3-ylmethyl]-2-(3-fluoro-4-methylsulfonamido-phenyl)-propionamide]
Ki [1]: 0.0009 µM
IC50 [2]: 0.14 µM

CCOc1nc(C(C)(C)C)ccc1CNC(=O)C(C)c1ccc(NS(C)(=O)=O)c(F)c1 (centres unmarked) [Example 373, N-((6-tert-butyl-2-ethoxypyridin-3-yl)methyl)-2-(3-fluoro-4-(methylsulfonamido)phenyl)propanamide]
Ki [1]: 0.0148 µM
IC50 [2]: 0.492 µM

CCCN(CCC)c1nc(C(F)(F)F)ccc1CNC(=O)C(C)c1ccc(NS(C)(=O)=O)c(C)c1 (centres unmarked) [Example 331, N-(2-dipropylamino-6-trifluoromethyl-pyridin-3-ylmethyl)-2-(4-methylsulfonamido-3-methyl-phenyl)-propionamide]
Ki [1]: 0.0007 µM
inhibition at 10 µM [2]: 31%

CC/C=C\COc1nc(C(F)(F)F)ccc1CNC(=O)C(C)c1ccc(NS(C)(=O)=O)c(F)c1 (centres unmarked) [Example 299, 2-(3-fluoro-4-methylsulfonamido-phenyl)-N-(2-pent-2-enyloxy-6-trifluoromethyl-pyridin-3-ylmethyl)-propionamide]
Ki [1]: 0.001 µM
IC50 [2]: 0.043 µM

CC(C(=O)NCc1ccc(C(F)(F)F)nc1-c1ccc2c(c1)OCO2)c1ccc(NS(C)(=O)=O)c(F)c1 (centres unmarked) [Example 266, N-(2-benzo[1,3]dioxol-5-yl-6-trifluoromethyl-pyridin-3-ylmethyl)-2-(3-fluoro-4-methylsulfonamido-phenyl)-propionamide]
Ki [1]: 0.0034 µM
inhibition in percent, IC50 (human) after pH stimulus ([2]; @ 1 μM, ne = no effect): ne @ 1 μM

CC(C(=O)NCc1ccc(C(F)(F)F)nc1-c1ccc(N(C)C)cc1)c1ccc(NS(C)(=O)=O)c(F)c1 (centres unmarked) [Example 308, N-[2-(4-dimethylamino-phenyl)-6-trifluoromethyl-pyridin-3-ylmethyl]-2-(3-fluoro-4-methylsulfonamido-phenyl)-propionamide]
Ki [1]: 0.0032 µM
IC50 [2]: 0.414 µM

CC(C)=Cc1nc(C(F)(F)F)ccc1CNC(=O)C(C)c1ccc(NS(C)(=O)=O)c(F)c1 (centres unmarked) [Example 273, 2-(3-fluoro-4-methylsulfonamido-phenyl)-N-[2-(2-methyl-propenyl)-6-trifluoromethyl-pyridin-3-ylmethyl]-propionamide]
Ki [1]: 0.0115 µM
IC50 [2]: 1.61 µM

CCCN(CCC)c1nc(C(C)(C)C)ccc1CNC(=O)C(C)c1ccc(NS(C)(=O)=O)c(F)c1 (centres unmarked) [Example 297, N-(6-tert-butyl-2-dipropylamino-pyridin-3-ylmethyl)-2-(3-fluoro-4-methylsulfonamido-phenyl)-propionamide]
Ki [1]: 0.0025 µM
IC50 [2]: 0.179 µM

COc1cc(OC)cc(-c2cc(C(F)(F)F)ccc2CNC(=O)C(C)c2ccc(NS(C)(=O)=O)c(F)c2)c1 (centres unmarked) [Example 350, N-(3′,5′-dimethoxy-5-trifluoromethyl-biphenyl-2-ylmethyl)-2-(3-fluoro-4-methylsulfonamido-phenyl)-propionamide]
Ki [1]: 0.0058 µM
inhibition at 0.1 µM [2]: 4%
inhibition at 1 µM ([2]; @ 1 μM, ne = no effect): 52%

CC(C(=O)NCc1ccc(C(F)(F)F)nc1OC1CCC(C(F)(F)F)CC1)c1ccc(NS(C)(=O)=O)c(F)c1 (centres unmarked) [Example 340, 2-(3-fluoro-4-methylsulfonamido-phenyl)-N-[6-trifluoromethyl-2-(4-trifluoromethyl-cyclohexyloxy)-pyridin-3-ylmethyl]-propionamide]
Ki [1]: 0.0012 µM
IC50 [2]: 0.279 µM

COc1ccc(-c2nc(C(F)(F)F)ccc2CNC(=O)C(C)c2ccc(NS(C)(=O)=O)c(F)c2)cc1OC (centres unmarked) [Example 326, N-[2-(3,4-dimethoxy-phenyl)-6-trifluoromethyl-pyridin-3-ylmethyl]-2-(3-fluoro-4-methylsulfonamido-phenyl)-propionamide]
Ki [1]: 0.0256 µM
inhibition at 10 µM [2]: 66%

CC1CCN(c2nc(C(F)(F)F)ccc2CNC(=O)C(C)c2ccc(NS(=O)(=O)C(C)C)c(F)c2)CC1 (centres unmarked) [Example 309, 2-[3-fluoro-4-(propan-2-sulfonylamino)-phenyl]-N-(4-methyl-6′-trifluoromethyl-3,4,5,6-tetrahydro-2H-[1,2′]bipyridinyl-3′-ylmethyl)-propionamide]
Ki [1]: 0.0087 µM
inhibition at 5 µM [2]: 20%

CCC/C=C/c1nc(C(F)(F)F)ccc1CNC(=O)C(C)c1ccc(NS(C)(=O)=O)c(F)c1 (centres unmarked) [Example 301, 2-(3-fluoro-4-methylsulfonamido-phenyl)-N-(2-pent-1-enyl-6-trifluoromethyl-pyridin-3-ylmethyl)-propionamide]
Ki [1]: 0.0009 µM
IC50 [2]: 0.102 µM

COc1nc(C(C)(C)C)ccc1CNC(=O)C(C)c1ccc(NS(C)(=O)=O)c(F)c1 (centres unmarked) [Example 372, N-((6-tert-butyl-2-methoxypyridin-3-yl)methyl)-2-(3-fluoro-4-(methylsulfonamido)phenyl)propanamide]
Ki [1]: 0.0143 µM
inhibition at 1 µM ([2]; @ 1 μM, ne = no effect): 52%

CCCC(CCC)Oc1nc(C(F)(F)F)ccc1CNC(=O)C(C)c1ccc(NS(C)(=O)=O)c(F)c1 (centres unmarked) [Example 336, 2-(3-fluoro-4-methylsulfonamido-phenyl)-N-[2-(1-propyl-butoxy)-6-trifluoromethyl-pyridin-3-ylmethyl]-propionamide]
Ki [1]: 0.0007 µM
inhibition at 0.1 µM [2]: 35%
inhibition at 1 µM ([2]; @ 1 μM, ne = no effect): 50%

CC(C)COc1cc(C(F)(F)F)ccc1CNC(=O)C(C)c1ccc(NS(C)(=O)=O)c(F)c1 (centres unmarked) [Example 98, 2-(3-fluoro-4-methylsulfonamido-phenyl)-N-(2-isobutoxy-4-trifluoromethyl-benzyl)-propionamide]
Ki [1]: 0.0015 µM
IC50 [2]: 0.041 µM

Cc1cc(-c2nc(C(F)(F)F)ccc2CNC(=O)C(C)c2ccc(NS(C)(=O)=O)c(F)c2)ccc1F (centres unmarked) [Example 278, 2-(3-fluoro-4-methylsulfonamido-phenyl)-N-[2-(4-fluoro-3-methyl-phenyl)-6-trifluoromethyl-pyridin-3-ylmethyl]-propionamide]
Ki [1]: 0.0004 µM
IC50 [2]: 0.076 µM

CC(=O)C1(c2ccccc2)CCN(c2nc(C(F)(F)F)ccc2CNC(=O)C(C)c2ccc(NS(C)(=O)=O)c(F)c2)CC1 (centres unmarked) [Example 304, N-(4-acetyl-4-phenyl-6′-trifluoromethyl-3,4,5,6-tetrahydro-2H-[1,2′]bipyridinyl-3′-ylmethyl)-2-(3-fluoro-4-methylsulfonamido-phenyl)-propionamide]
Ki [1]: 0.00071 µM
IC50 [2]: 0.0354 µM
